Measured values: PubChem BioAssay (NCI)
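Test compounds were applied to cells in 96-well plates for 48 hours at 5 doses. GI50: concentration for 50% inhibition of growth. TGI marks complete inhibition of growth.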

How the values were obtained:
Experiment in all cases: DTP human tumour cell line panel, 48 h
[1] = tested on: UACC-257 melanoma
[2] = tested on: SF-295 CNS
[3] = tested on: PC-3 prostate
[4] = tested on: EKVX NSCLC
[5] = tested on: LOX IMVI melanoma
[6] = tested on: TK-10 renal
[7] = tested on: NCI-H522 lung
[8] = tested on: MALME-3M melanoma
[9] = tested on: SK-MEL-5 melanoma
[10] = tested on: NCI-H226 lung
[11] = tested on: HOP-62 NSCLC
[12] = tested on: SK-OV-3 ovarian
[13] = tested on: IGROV1 ovarian
[14] = tested on: NCI-H23 lung
[15] = tested on: K-562 leukemia
[16] = tested on: DU-145 prostate
[17] = tested on: CAKI-1 renal
[18] = tested on: RXF 393 renal
[19] = tested on: SK-MEL-28 melanoma
[20] = tested on: HCC-2998 colon
[21] = tested on: BT-549 breast
[22] = tested on: CCRF-CEM leukemia
[23] = tested on: SF-539 CNS
[24] = tested on: COLO 205 colon
[25] = tested on: UACC-62 melanoma
[26] = tested on: NCI-H460 lung
[27] = tested on: 786-0 renal
[28] = tested on: RPMI-8226 leukemia
[29] = tested on: A498 renal
[30] = tested on: MCF7 breast
[31] = tested on: MOLT-4 leukemia
[32] = tested on: ACHN renal
[33] = tested on: HL-60(TB) leukemia
[34] = tested on: SW-620 colon
[35] = tested on: SR leukemia
[36] = tested on: SNB-75 CNS
[37] = tested on: HOP-92 NSCLC
[38] = tested on: SN12C renal
[39] = tested on: OVCAR-4 ovarian
[40] = tested on: OVCAR-8 ovarian
[41] = tested on: HT29 colon
[42] = tested on: SF-268 CNS
[43] = tested on: M14 melanoma
[44] = tested on: HS 578T breast
[45] = tested on: HCT-15 colon
[46] = tested on: SNB-19 CNS
[47] = tested on: HCT-116 colon
[48] = tested on: MDA-MB-231 breast
[49] = tested on: A549 NSCLC
[50] = tested on: KM12 colon
[51] = tested on: SK-MEL-2 melanoma
[52] = tested on: OVCAR-5 ovarian
[53] = tested on: U251 CNS
[54] = tested on: UO-31 renal

Structure (SMILES): CCOC(=O)c1ccc(NC(=O)Nc2nccs2)cc1
- GI50 [1]: 11.1 µM
- TGI [1]: 24.1 µM
- GI50 [2]: 0.627 µM
- TGI [2]: 15.5 µM
- GI50 [3]: 0.443 µM
- TGI [3]: 39.8 µM
- GI50 [4]: 0.162 µM
- TGI [4]: > 96.6 µM
- GI50 [5]: 0.0987 µM
- TGI [5]: 50.1 µM
- GI50 [6]: 0.0381 µM
- TGI [6]: 0.669 µM
- GI50 [7]: 0.0724 µM
- TGI [7]: 0.688 µM
- GI50 [8]: 1.24 µM
- TGI [8]: 31.5 µM
- GI50 [9]: 0.0285 µM
- TGI [9]: 0.211 µM
- GI50 [10]: 0.363 µM
- GI50 [11]: 2.51 µM
- TGI [11]: > 45.1 µM
- GI50 [12]: 0.0445 µM
- TGI [12]: 9.76 µM
- GI50 [13]: 0.064 µM
- TGI [13]: 24 µM
- GI50 [14]: 0.0668 µM
- TGI [14]: 36.6 µM
- GI50 [15]: 0.0314 µM
- TGI [15]: 30.1 µM
- GI50 [16]: 0.107 µM
- TGI [16]: 0.69 µM
- GI50 [17]: 0.398 µM
- TGI [17]: 44.8 µM
- GI50 [18]: 0.0434 µM
- TGI [18]: > 100 µM
- GI50 [19]: 0.0712 µM
- TGI [19]: 25.8 µM
- GI50 [20]: 0.204 µM
- TGI [20]: 4.45 µM
- GI50 [21]: 0.328 µM
- TGI [21]: 2.54 µM
- GI50 [22]: 0.448 µM
- TGI [22]: > 100 µM
- GI50 [23]: 0.106 µM
- TGI [23]: 0.385 µM
- GI50 [24]: 0.0336 µM
- TGI [24]: 0.117 µM
- GI50 [25]: 0.044 µM
- TGI [25]: 20.4 µM
- GI50 [26]: 0.0375 µM
- TGI [26]: 2.06 µM
- GI50 [27]: 0.716 µM
- TGI [27]: > 46.4 µM
- GI50 [28]: 0.698 µM
- TGI [28]: > 39.5 µM
- GI50 [29]: 0.0795 µM
- TGI [29]: 0.568 µM
- GI50 [30]: 0.0309 µM
- TGI [30]: 13.9 µM
- GI50 [31]: 0.379 µM
- TGI [31]: 31.3 µM
- GI50 [32]: 0.297 µM
- TGI [32]: > 100 µM
- GI50 [33]: 0.459 µM
- TGI [33]: 7.76 µM
- GI50 [34]: 0.0283 µM
- TGI [34]: 35.6 µM
- GI50 [35]: 0.0302 µM
- GI50 [36]: 1.55 µM
- TGI [36]: > 48.9 µM
- GI50 [37]: 5.25 µM
- TGI [37]: 40.4 µM
- GI50 [38]: 0.371 µM
- TGI [38]: 27.1 µM
- GI50 [39]: 0.0631 µM
- TGI [39]: > 66.3 µM
- GI50 [40]: 0.0532 µM
- TGI [40]: 3.17 µM
- GI50 [41]: 0.0336 µM
- GI50 [42]: 0.201 µM
- TGI [42]: 16.9 µM
- GI50 [43]: 0.0346 µM
- TGI [43]: > 100 µM
- GI50 [44]: 0.033 µM
- TGI [44]: 33.2 µM
- GI50 [45]: 0.0364 µM
- TGI [45]: > 45.5 µM
- GI50 [46]: 0.128 µM
- TGI [46]: 42.8 µM
- GI50 [47]: 0.0605 µM
- GI50 [48]: 0.275 µM
- TGI [48]: 2.98 µM
- GI50 [49]: 0.0725 µM
- GI50 [50]: 0.11 µM
- TGI [50]: 1.01 µM
- GI50 [51]: 0.819 µM
- TGI [51]: 46.8 µM
- GI50 [52]: 1.1 µM
- TGI [52]: > 100 µM
- GI50 [53]: 0.0478 µM
- TGI [53]: 25.1 µM
- GI50 [54]: 0.49 µM
- TGI [54]: 57.8 µM
